pIC50: −log10 of the molar value.
System: SARS-CoV-2
Test: microbe, parasite or virus in culture
Conditions: Severe acute respiratory syndrome coronavirus 2, Vero C1008, 48 h; for IC50: read-out: pIC50 (converted)

| Compound | pIC50 | IC50 |
| --- | --- | --- |
| O=C(O)Cc1ccc(-c2ccccc2)cc1 [FELBINAC] | < 4.70 | > 20 µM |
| CC[C@H]1/C=C\C=C/C[C@@H](C)[C@H](O)[C@@](C)(O)C(=O)[C@@H](C)[C@H](O)[C@@H](C)C(=O)[C@@H](C)[C@H](O)[C@@H](C)/C=C\C(=O)O[C@@H]2[C@@H](C)[C@H](CC1)O[C@]1(CC[C@H](C)[C@H](C[C@@H](C)O)O1)[C@H]2C | < 4.70 | > 20 µM |
| Nc1c(O)cccc1C(=O)CC(N)C(=O)O (configuration not stated) | < 4.70 | > 20 µM |
| CCOc1cccnc1Oc1cncc(-c2ncc(C(=O)N[C@H]3CCOC3)cn2)c1 [PF-06865571] | < 4.70 | > 20 µM |
| O=C(c1ccc(/C=C/c2n[nH]c3ccccc23)cc1)N1CCNCC1 [KW-2449] | < 4.70 | > 20 µM |
| C/C(=N\N=C(/S)N/N=C(\S)Nc1ccccc1Cl)c1ccccn1 | < 4.70 | > 20 µM |
| CCN1CCN(C(=O)N[C@@H](C(=O)N[C@@H]2C(=O)N3C(C(=O)O)=C(CSc4nnnn4C)CS[C@H]23)c2ccc(O)cc2)C(=O)C1=O [CEFOPERAZONE] | < 4.70 | > 20 µM |
| O=C(N[C@@H](Cc1c[nH]c2ccccc12)C(=O)O)c1ccc(Cl)cc1 [BENZOTRIPT] | < 4.70 | > 20 µM |
| Cn1cc(CC(N)C(=O)O)c2ccccc21 (configuration not stated) [1-METHYLTRYPTOPHAN] | < 4.70 | > 20 µM |
| Fc1ccc(NC(=S)Nc2cc(Cl)cc(Cl)c2)cc1 [LOFLUCARBAN] | < 4.70 | > 20 µM |
| CNC1(C)C2CCC(C2)C1(C)C (configuration not stated) [MECAMYLAMINE] | < 4.70 | > 20 µM |
| CO[C@H]1C[C@H](O[C@H]2[C@H](C)[C@@H](O[C@@H]3O[C@H](C)C[C@H](N(C)C)[C@H]3O)[C@@H](C)C[C@@]3(CO3)C(=O)[C@H](C)[C@@H](O)[C@@H](C)[C@@H](C)OC(=O)[C@@H]2C)O[C@@H](C)[C@@H]1O [OLEANDOMYCIN] | < 4.70 | > 20 µM |
| CC(C)NCC(O)c1ccc([N+](=O)O)cc1 (configuration not stated) | < 4.70 | > 20 µM |
| COc1cc2nccc(Oc3ccc(NC(=O)NC4CC4)c(Cl)c3)c2cc1C(N)=O [LENVATINIB] | < 4.70 | > 20 µM |
| NS(=O)(=O)NCc1csc2ccccc12 | < 4.70 | > 20 µM |
| CC(C)[C@@]1(NC(=O)[C@@H]2C[C@@H]3c4cccc5[nH]cc(c45)C[C@H]3N(C)C2)O[C@@]2(O)[C@@H]3CCCN3C(=O)[C@H](Cc3ccccc3)N2C1=O [DIHYDROERGOCRISTINE] | < 4.70 | > 20 µM |
| O=C1CCCC2C3CC(CN12)[C@@H]1CCCCN1C3 (some centres not stated) | < 4.70 | > 20 µM |
| CN(C)CCN(Cc1cccs1)c1ccccn1 | < 4.70 | > 20 µM |
| CC(C)(Oc1ccc(C(=O)c2ccc(Cl)cc2)cc1)C(=O)O [FENOFIBRIC ACID] | < 4.70 | > 20 µM |
| CN1c2ccccc2[C@H](NCCCCCCC(=O)O)c2ccc(Cl)cc2S1(=O)=O | < 4.70 | > 20 µM |
| NC(=O)OC[C@H](O)c1ccccc1Cl | < 4.70 | > 20 µM |

| Compound | pIC50 | IC50 |
| --- | --- | --- |
| CN[C@H]1CCN(c2cc(NCC3CC3)nc(N)n2)C1 | < 4.70 | > 20 µM |
| Oc1ccc2c(c1)[C@@]13CCCC[C@@]1(O)[C@@H](C2)N(CC1CCC1)CC3 [BUTORPHANOL] | < 4.70 | > 20 µM |
| O=C(Oc1ccccc1C(=O)O)c1ccccc1O [SALSALATE] | < 4.70 | > 20 µM |
| CCC(C)n1ncn(-c2ccc(N3CCN(c4ccc(OC[C@@H]5CO[C@@](Cn6cncn6)(c6ccc(Cl)cc6Cl)O5)cc4)CC3)cc2)c1=O (some centres not stated) | < 4.70 | > 20 µM |
| COc1ccc2c(c1)CCC1C2CCC2(C)C(O)CCC12 (configuration not stated) | < 4.70 | > 20 µM |
| CN(C)N=Nc1[nH]cnc1C(N)=O | < 4.70 | > 20 µM |
| O[C@](Cn1cncn1)(Cn1cnc(/C=C/c2ccc(OCC(F)(F)C(F)F)cc2)n1)c1ccc(F)cc1F | < 4.70 | > 20 µM |
| O=C(NCCN1CCN(c2cccc3c2OC[C@@H](CO)O3)CC1)c1ccc(F)cc1 | < 4.70 | > 20 µM |
| C[C@@H](OC[C@@]1(c2ccccc2)CC[C@]2(CCC(=O)N2)CN1)c1cc(C(F)(F)F)cc(C(F)(F)F)c1 [ROLAPITANT] | < 4.70 | > 20 µM |
| CN1C(=O)[C@@H](NC(=O)c2cc3ccccc3[nH]2)N=C(c2ccccc2)c2ccccc21 [DEVAZEPIDE] | < 4.70 | > 20 µM |
| CCOC(=O)c1[nH]c2cc(OC)c(OC)cc2c1CCN1CCN(c2ccccc2)CC1 [ALPERTINE] | < 4.70 | > 20 µM |
| O=C(CO)[C@@H](O)[C@H](O)[C@H](O)CO [FRUCTOSE] | < 4.70 | > 20 µM |
| COC(=O)N1CCN(Cc2cccc(NC(=O)Nc3ccc(C)nc3)c2F)CC1 [OMECAMTIV MECARBIL] | < 4.70 | > 20 µM |
| NC(=O)CN1CC(c2ccccc2)CC1=O (configuration not stated) | < 4.70 | > 20 µM |
| CN1C(=O)CCS(=O)(=O)C1c1ccc(Cl)cc1 (configuration not stated) [CHLORMEZANONE] | < 4.70 | > 20 µM |
| O=C1Nc2ccc(Cl)cc2C(/C=C/C2CC2)(C(F)(F)F)N1 (configuration not stated) | < 4.70 | > 20 µM |
| C[C@H](Cc1ccc2c(c1)OC(C(=O)O)(C(=O)O)O2)NC[C@H](O)c1cccc(Cl)c1 | < 4.70 | > 20 µM |
| C[C@@H]1CC(=O)NN=C1c1ccc2c(c1)OCC(=O)N2 | < 4.70 | > 20 µM |
| CC/C(=C(\CC)c1ccc(OP(=O)(O)O)cc1)c1ccc(OP(=O)(O)O)cc1 | < 4.70 | > 20 µM |
| CN(C)[C@@H](CCOc1cccc2ccccc12)c1ccccc1 [DAPOXETINE] | < 4.70 | > 20 µM |
| CCCCOc1cc(CC2CNC(=O)N2)ccc1OC (configuration not stated) [RO-201724] | < 4.70 | > 20 µM |

| Compound | pIC50 | IC50 |
| --- | --- | --- |
| C[N+]1(C)[C@@H]2C[C@@H](OC(=O)C(O)(c3cccs3)c3cccs3)C[C@H]1[C@@H]1O[C@@H]12 [TIOTROPIUM] | < 4.70 | > 20 µM |
| C=CCn1c(=O)n(C2OC(CO)C(O)C2O)c2nc(N)[nH]c(=O)c21 (configuration not stated) | < 4.70 | > 20 µM |
| CCC(=O)O[C@](Cc1ccccc1)(c1ccccc1)[C@H](C)CN(C)C [PROPOXYPHENE] | < 4.70 | > 20 µM |
| N=C(N)N/N=C/c1c(Cl)cccc1Cl [GUANABENZ] | < 4.70 | > 20 µM |
| CCCCCCCCCC(=O)OCCN1CCN(CCCN2c3ccccc3Sc3ccc(C(F)(F)F)cc32)CC1 [FLUPHENAZINE DECANOATE] | < 4.70 | > 20 µM |
| Cc1c(NC(=O)C(C)N(C)C)c(=O)n(-c2ccccc2)n1C (configuration not stated) | < 4.70 | > 20 µM |
| CCO[C@@H]1OC(=O)C[C@@H]1NC(=O)[C@@H]1CCCN2C(=O)CC[C@H](NC(=O)c3nccc4ccccc34)C(=O)N12 | < 4.70 | > 20 µM |
| COc1ccc(N2CCN(c3cccc(C)c3)CC2)nn1 | < 4.70 | > 20 µM |
| CNC(=O)c1c(-c2ccc(F)cc2)oc2cc(N(CCO)S(C)(=O)=O)c(C3CC3)cc12 [NESBUVIR] | < 4.70 | > 20 µM |
| C=CCc1ccc(OC)cc1 [ESTRAGOLE] | < 4.70 | > 20 µM |
| CCCCCN(CCCOC)C(=O)C(CCC(=O)O)NC(=O)c1ccc(Cl)c(Cl)c1 (configuration not stated) [LOXIGLUMIDE] | < 4.70 | > 20 µM |
| CC(=O)OCC(=O)[C@@]1(O)CC[C@H]2[C@@H]3CCC4=CC(=O)CC[C@]4(C)[C@H]3[C@@H](O)C[C@@]21C [HYDROCORTISONE ACETATE] | < 4.70 | > 20 µM |
| CCN1C[C@]2(COC)CC[C@H](O)[C@]34C5C[C@@H]6[C@@H](OC)C[C@@](O)(C5[C@H]6OC)[C@@](O)([C@H]13)[C@@H](OC)C24 (some centres not stated) | < 4.70 | > 20 µM |
| CS(=N)(=O)CCC(N)C(=O)O (configuration not stated) | < 4.70 | > 20 µM |
| OCCN1C[C@H](O)[C@@H](O)[C@H](O)[C@H]1CO [MIGLITOL] | < 4.70 | > 20 µM |
| CN1CCN(C2=Nc3ccccc3Oc3ccc(Cl)cc32)CC1 [LOXAPINE] | < 4.70 | > 20 µM |
| NCCOC[C@H](N)C(=O)O | < 4.70 | > 20 µM |
| C(#CCN1CCCC1)CN1CCCC1 | < 4.70 | > 20 µM |
| CCC[C@@H]1C[C@@H](C(=O)NC(C2O[C@H](SC)[C@H](OP(=O)(O)O)[C@@H](O)[C@H]2O)[C@H](C)Cl)N(C)C1 (some centres not stated) | < 4.70 | > 20 µM |

Source: ChEMBL document CHEMBL4651402, “Screening of ~5500 FDA-approved drugs and clinical candidates for anti-SARS-CoV-2 activity” (2021)
